Experimental data published in ChEMBL document CHEMBL5375961, “Design, Synthesis, and Biological Evaluation of Trisubstituted Piperazine Derivatives as Noncovalent Severe Acute Respiratory Syndrome Coronavirus 2 Main Protease Inhibitors with Improved Antiviral Activity and Favorable Druggability” (J Med Chem, 2023).

Tested on: SARS-CoV-2
Assay: Antiviral activity against SARS-CoV-2 Delta (B.1.617.2) infected in African green monkey Vero E6 cells assessed as reduction in viral replication treated for 1 hr followed by replacement with fresh medium containing compounds measured after 23 hrs in presence of CP-100356 by qRT-PCR analysis
Assay type: functional, organism-based
Conditions: Severe acute respiratory syndrome coronavirus 2, Delta (B.1.617.2), Vero C1008

## CC(C)(C)[C@H](NC(=O)C(F)(F)F)C(=O)N1CC2(C[C@H]1C(=O)N[C@H](C#N)C[C@@H]1CCNC1=O)SCCS2
  EC50: 34 nM
